9 compounds from patent publication US7326718B2, “8-Substituted imidazopyridines” (Altana Pharma AG, priority 2002, dated 2008) can be followed below.

One may read the melting point as the temperature, or range, at which the solid turns liquid.

Data set [1] relates to pentagastrin-stimulated acid secretion of the perfused rat stomach. The experiment in a line: Secretion-inhibiting action on the perfused rat stomach (pentagastrin-stimulated acid secretion, intraduodenal administration in vivo). To be noted: dose 1 μmol/kg i.d., anaesthetized female CD rat, pentagastrin-stimulated (1 μg/kg i.v. infusion). From the text:
Testing of the Secretion-Inhibiting Action on the Perfused Rat Stomach
In Table A which follows, the influence of the compounds according to the invention on the pentagastrin-stimulated acid secretion of the perfused rat stomach after intraduodenal administration in vivo is shown.
The abdomen of anaesthetized rats (CD rat, female, 200-250 g; 1.5 g/kg i.m. urethane) was opened after tracheotomy by a median upper abdominal incision and a PVC catheter was fixed transorally in the oesophagus and another via the pylorus such that the ends of the tubes just projected into the gastric lumen. The catheter leading from the pylorus led outward into the right abdominal wall through a side opening.
After thorough rinsing (about 50-100 ml), warm (37° C.) physiological NaCl solution was continuously passed through the stomach (0.5 ml/min, ph 6.8-6.9; Braun-Unita I). The pH (pH meter 632, glass electrode EA 147; φ=5 mm, Metrohm) and, by titration with a freshly prepared 0.01N NaOH solution to ph 7 (Dosimat 665 Metrohm), the secreted HCl were determined in the effluent in each case collected at an interval of 15 minutes.
The gastric secretion was stimulated by continuous infusion of 1 μg/kg (=1.65 ml/h) of i.v. pentagastrin (left femoral vein) about 30 min after the end of the operation (i.e. after determination of 2 preliminary fractions). The substances to be tested were administered intraduodenally in a 2.5 ml/kg liquid volume 60 min after the start of the continuous pentagastrin infusion.
The body temperature of the animals was kept at a constant 37.8-38° C. by infrared irradiation and heat pads (automatic, stepless control by means of a rectal temperature sensor).

The structures appear in SMILES notation. Some results are limits rather than exact numbers.

Compound `COC(=O)c1cc(N[C@@H]2c3ccccc3C[C@H]2O)c2nc(C)c(C)n2c1` (relative stereo) [Example 1, Methyl 8-(trans-2,3-dihydro-2-hydroxy-1-indenylamino)-2,3-dimethyl-imidazo[1,2-a]pyridine-6-carboxylate] showed a melting point of 261 to 262 °C.
The same measure, in the same setting: in the case of `Cc1nc2c(N[C@@H]3c4ccccc4C[C@H]3O)cc(C(=O)O)cn2c1C` (relative stereo) [Example 2, 8-(trans-2,3-Dihydro-2-hydroxy-1-indenylamino)-2,3-dimethyl-imidazo[1,2-a]pyridine-6-carboxylic acid] it was 246 to 249 °C; in that of `Cc1nc2c(O[C@@H]3c4ccccc4C[C@H]3O)cc(C(=O)O)cn2c1C` (relative stereo) [Example 8, 8-(trans-2,3-Dihydro-2-hydroxy-1-indenyloxy)-2,3-dimethyl-imidazo[1,2-a]pyridine-6-carboxylic acid], 229 to 231 °C.
As to `Cc1nc2c(O[C@@H]3c4ccccc4C[C@H]3O)cc(C(=O)N(C)C)cn2c1C` (relative stereo) [Example 9, 8-(trans-2,3-Dihydro-2-hydroxy-1-indenyloxy)-6-(N,N-dimethylamino-carbonyl)-2,3-dimethyl-imidazo[1,2-a]pyridine], the “Inhibition of acid secretion (%)” value in data set [1] is recorded as greater than 30%.
`COCc1cc(O[C@@H]2c3ccccc3C[C@H]2O)c2nc(C)c(C)n2c1` (relative stereo) [Example 11, 8-(trans-2,3-Dihydro-2-hydroxy-1-indenyloxy)-6-methoxymethyl-2,3-dimethyl-imidazo[1,2-a]pyridine] showed a melting point of 142 to 143 °C. Moreover, the “Inhibition of acid secretion (%)” value in data set [1] was greater than 30%.
Compound `Cc1nc2c(O[C@@H]3c4ccccc4CC[C@H]3O)cc(C(=O)N(C)C)cn2c1C.Cl` (relative stereo) [Example 15, 6-(N,N-Dimethylamino-carbonyl)-2,3-dimethyl-8-(trans-1,2,3,4-tetrahydro-2-hydroxy-1-naphthalenyloxy)-imidazo[1,2-a]pyridine hydrochloride] yielded a melting point of 129 °C. Also, the “Inhibition of acid secretion (%)” value in data set [1] was greater than 30%.
Consider `COc1cccc2c1[C@@H](Oc1cc(C(=O)N(C)C)cn3c(C)c(C)nc13)[C@H](O)C2` (relative stereo) [Example 16, 8-(trans-2,3-Dihydro-2-hydroxy-7-methoxy-1-indenyloxy)-6-(N,N-dimethylamino-carbonyl)-2,3-dimethyl-imidazo[1,2-a]pyridine], for which the “Inhibition of acid secretion (%)” value in data set [1] is on record as greater than 30%.
The same measure, in the same setting: in the case of `Cc1nc2c(O[C@H]3c4ccccc4C[C@@H]3O)cc(C(=O)N(C)C)cn2c1C` [Example 14, 8-[(1S,2S)-2,3-Dihydro-2-hydroxy-1-indenyloxy)-6-(N,N-dimethylamino-carbonyl)-2,3-dimethyl-imidazo[1,2-a]pyridine] it was greater than 30%; in that of `Cc1cccc2c1[C@@H](Oc1cc(C(=O)N(C)C)cn3c(C)c(C)nc13)[C@H](O)C2` [Example 17], greater than 30%.
